# Like-named read-outs stand apart in the source and are kept apart here.
# Tests used:
# [1] = clinical; conditions: male, human
# [2] = tested on: LUTS associated with benign prostatic hyperplasia; conditions: 4 mg silodosin twice daily; cited from earlier work
# [3] = tested on: symptoms of BPH; assay: Study B: 4 mg Silodosin Twice Daily (KMD-303), Japanese Phase 3 Study; format: in vivo, human; conditions: 4 mg twice daily
# Protocol: Safety was assessed by monitoring adverse events, clinical laboratory measurements, vital signs, and physical exams. […] In addition, the results for IPSS/AUASS for studies A, B, D and E are illustrated in FIGS. 3 to 6, respectively, and the results for Qmax for studies A, B, D and E are illustrated in FIGS. 7 to 10, respectively.
# [4] = Pharmacokinetic Study on Silodosin (Study US011), once daily for seven days, fed state; conditions: for Cmax: Day 7, mean (SD)
# [5] = tested on: symptoms associated with BPH; assay: Efficacy Studies on Silodosin, studies A-E compared (once daily vs twice daily); format: in vivo, human; conditions: Tables 6 and 7
# Description: In addition, the results for IPSS/AUASS for studies A, B, D and E are illustrated in FIGS. 3 to 6, respectively, and the results for Qmax for studies A, B, D and E are illustrated in FIGS. 7 to 10, respectively.
# [6] = Pharmacokinetic Study on Silodosin (Study 98364); format: in vivo; conditions: human, plasma, 4 mg; for concentration at 2 h: Day 7, 2 h; for concentration at 3 h: Day 7, 3 h; for concentration at 4 h: Day 7, 4 h; for concentration at 5 h: Day 7, 5 h; for concentration at 6 h: Day 7, 6 h; for concentration at 8 h: Day 7, 8 h; for concentration at 0 h: Day 7, 0 h (t0); for concentration at 0.5 h: Day 7, 0.5 h; for concentration at 1 h: Day 7, 1 h; for concentration at 12 h: Day 7, 12 h; for concentration at 24 h: Day 7, 24 h
# Description: The remaining two subjects in each dosing cohort received placebo.
# [7] = tested on: symptoms of BPH; assay: Study A: 4 mg Silodosin Twice Daily (KMD-202), Japanese Phase 2 Study; format: in vivo, human; conditions: 4 mg twice daily
# Description: Patients were males who were at least 50 years of age and who had at least two of the following three variables classified as moderate, or at least one variable classified as severe: IPSS/AUASS, Qmax and QoL. In addition, the results for IPSS/AUASS for studies A, B, D and E are illustrated in FIGS. 3 to 6, respectively, and the results for Qmax for studies A, B, D and E are illustrated in FIGS. 7 to 10, respectively.
# [8] = immediate-release dosage form once daily, steady state
# [9] = 4 mg once daily 7 days, individual subjects, read-out: Blood Plasma Concentrations
# [10] = male, 4 mg once daily 7 days, mean, read-out: Blood Plasma Concentrations
# [11] = male, 4 mg twice daily 7 days (simulated from Table 1a), read-out: Estimated Blood Plasma Concentrations
smiles,measurement,setting,value
C[C@H](Cc1cc2c(c(C(N)=O)c1)N(CCCO)CC2)NCCOc1ccccc1OCC(F)(F)F [Silodosin],concentration at 12 h,"[1]; in vivo, 8 mg",9.45 ng/mL
same,Cmax,"[1]; plasma, 4 mg",27.6 ng/mL
same,Tmax,"[1]; plasma, 4 mg",2 h
same,concentration at 0.3 h,"[1]; plasma, 4 mg",0 ng/mL
same,concentration at 8 h,"[1]; plasma, 4 mg",4.83 ng/mL
same,concentration at 12.25 h,"[1]; plasma, 4 mg",1.8 ng/mL
same,concentration at 13 h,"[1]; plasma, 4 mg",9.77 ng/mL
same,concentration at 14 h,"[1]; plasma, 4 mg",31.5 ng/mL
same,concentration at 15 h,"[1]; plasma, 4 mg",32.5 ng/mL
same,concentration at 18 h,"[1]; plasma, 4 mg",7.89 ng/mL
same,concentration at 20 h,"[1]; plasma, 4 mg",5.93 ng/mL
same,half-life,"[1]; plasma, 4 mg",10.7 h
same,Cmax,"[1]; plasma, 8 mg",63.2 ng/mL
same,Tmax,"[1]; plasma, 8 mg",1.5 h
same,concentration at 145.5 h,"[1]; plasma, 8 mg",67.9 ng/mL
same,half-life,"[1]; plasma, 8 mg",11.2 h
same,concentration at 2 h,"[1]; plasma, oral, 8 mg",54.6 ng/mL
same,concentration at 3 h,"[1]; plasma, oral, 8 mg",42.8 ng/mL
same,concentration at 4 h,"[1]; plasma, oral, 8 mg",33.2 ng/mL
same,concentration at 6 h,"[1]; plasma, oral, 8 mg",18.5 ng/mL
same,efficacy in treating LUTS associated with BPH compared with 0.2 mg tamsulosin once daily,[2],comparable efficacy
same,Incidence of Adverse Events: Dizziness,[3],2.3 % of patients
same,Incidence of Adverse Events: Orthostatic Hypotension,[3],3.4 % of patients
same,Incidence of Adverse Events: Syncope,[3],0 % of patients
same,IPSS/AUASS baseline value,[3]; Week 0,17.1
same,Maximum Flow Rate baseline value,[3]; Week 0,9.89 mL/s
same,Mean Change From Baseline (CFB) in IPSS/AUASS,[3]; Week 1,−3.4
same,Mean Change From Baseline (CFB) in IPSS/AUASS,[3]; Week 2,−4.9
same,Mean Change From Baseline (CFB) in Maximum Flow Rate,[3]; Week 2,2.23 mL/s
same,Mean Change From Baseline (CFB) in IPSS/AUASS,[3]; Week 4,−6.3
same,Mean Change From Baseline (CFB) in Maximum Flow Rate,[3]; Week 4,2.18 mL/s
same,Mean Change From Baseline (CFB) in IPSS/AUASS,[3]; Week 8,−7.7
same,Mean Change From Baseline (CFB) in Maximum Flow Rate,[3]; Week 8,2.38 mL/s
same,Mean Change From Baseline (CFB) in IPSS/AUASS,[3]; Week 12,−8.9
same,Mean Change From Baseline (CFB) in Maximum Flow Rate,[3]; Week 12,2.33 mL/s
same,AUC,"[4]; 4 mg once daily, Day 1, mean",169.0 ng/mL
same,Mean Tmax,"[4]; 4 mg once daily, Day 7",3.0 h
same,AUC,"[4]; 4 mg once daily, Day 7, mean",171 ng/mL
same,t ½,"[4]; 4 mg once daily, Day 7, mean",12.5 h
same,Cmax,[4]; 4 mg once daily,37.2 (18.7) ng/ml
same,AUC,"[4]; 8 mg once daily, Day 1, mean",413.0 ng/mL
same,AUC,"[4]; 8 mg once daily, Day 7, mean",396 ng/mL
same,t ½,"[4]; 8 mg once daily, Day 7, mean",10.6 h
same,Cmax,[4]; 8 mg once daily,73.4 (32.4) ng/ml
same,time after administration at which Cmax is reached,[4]; [8],about 2 hours
same,time after administration at which plasma concentration falls to near baseline,[4]; [8],about 12 hours
same,"mean changes in IPSS/AUASS and Qmax, 8 mg once daily compared with 4 mg twice daily",[5],comparable
same,concentration at 2 h,[6]; [9],35.3 ng/mL
same,concentration at 3 h,[6]; [9],24.4 ng/mL
same,concentration at 4 h,[6]; [9],16.6 ng/mL
same,concentration at 5 h,[6]; [9],13.3 ng/mL
same,concentration at 6 h,[6]; [9],8.9 ng/mL
same,concentration at 8 h,[6]; [9],6.14 ng/mL
same,concentration at 0 h,[6]; [10],4.63 ng/mL
same,concentration at 0.5 h,[6]; [10],5.57 ng/mL
same,concentration at 1 h,[6]; [10],21.2 ng/mL
same,concentration at 2 h,[6]; [10],31.5 ng/mL
same,concentration at 3 h,[6]; [10],18.4 ng/mL
same,concentration at 4 h,[6]; [10],13 ng/mL
same,concentration at 5 h,[6]; [10],10.3 ng/mL
same,concentration at 6 h,[6]; [10],7.26 ng/mL
same,concentration at 8 h,[6]; [10],5.45 ng/mL
same,concentration at 12 h,[6]; [10],3.31 ng/mL
same,concentration at 24 h,[6]; [10],2.01 ng/mL
same,concentration at […],"[6]; male, 4 mg once daily 7 days, Day 7, […], mean, read-out: Blood Plasma Concentrations",4.67 ng/mL
same,concentration at 0 h,[6]; [11],4.63 ng/mL
same,concentration at 0.5 h,[6]; [11],5.57 ng/mL
same,concentration at 1 h,[6]; [11],21.2 ng/mL
same,concentration at 2 h,[6]; [11],31.5 ng/mL
same,concentration at 3 h,[6]; [11],18.4 ng/mL
same,concentration at 4 h,[6]; [11],13 ng/mL
same,concentration at 5 h,[6]; [11],10.3 ng/mL
same,concentration at 6 h,[6]; [11],7.26 ng/mL
same,concentration at 8 h,[6]; [11],5.45 ng/mL
same,concentration at 12 h,[6]; [11],3.31 ng/mL
same,concentration at 12.25 h,"[6]; male, 4 mg twice daily 7 days (simulated from Table 1a), Day 7, 12.25 h, read-out: Estimated Blood Plasma Concentrations",4.67 ng/mL
same,concentration at 13 h,"[6]; male, 4 mg twice daily 7 days (simulated from Table 1a), Day 7, 13 h, read-out: Estimated Blood Plasma Concentrations",21.2 ng/mL
same,concentration at 14 h,"[6]; male, 4 mg twice daily 7 days (simulated from Table 1a), Day 7, 14 h, read-out: Estimated Blood Plasma Concentrations",31.5 ng/mL
same,concentration at 15 h,"[6]; male, 4 mg twice daily 7 days (simulated from Table 1a), Day 7, 15 h, read-out: Estimated Blood Plasma Concentrations",18.4 ng/mL
same,concentration at 16 h,"[6]; male, 4 mg twice daily 7 days (simulated from Table 1a), Day 7, 16 h, read-out: Estimated Blood Plasma Concentrations",13 ng/mL
same,concentration at 17 h,"[6]; male, 4 mg twice daily 7 days (simulated from Table 1a), Day 7, 17 h, read-out: Estimated Blood Plasma Concentrations",10.3 ng/mL
same,concentration at 18 h,"[6]; male, 4 mg twice daily 7 days (simulated from Table 1a), Day 7, 18 h, read-out: Estimated Blood Plasma Concentrations",4.63 ng/mL
same,concentration at 20 h,"[6]; male, 4 mg twice daily 7 days (simulated from Table 1a), Day 7, 20 h, read-out: Estimated Blood Plasma Concentrations",4.67 ng/mL
same,concentration at 24 h,[6]; [11],5.57 ng/mL
same,Incidence of Adverse Events: Dizziness,[7],2.2 % of patients
same,Incidence of Adverse Events: Orthostatic Hypotension,[7],1.1 % of patients
same,Incidence of Adverse Events: Syncope,[7],0 % of patients
same,IPSS/AUASS baseline value,[7]; Week 0,18.7
same,Maximum Flow Rate baseline value,[7]; Week 0,10.70 mL/s
same,Mean Change From Baseline (CFB) in IPSS/AUASS,[7]; Week 2,−5.6
same,Mean Change From Baseline (CFB) in IPSS/AUASS,[7]; Week 4,−6.6
same,Mean Change From Baseline (CFB) in Maximum Flow Rate,[7]; Week 4,1.31 mL/s

# — patent US20110319464A1, “METHODS FOR TREATING BENIGN PROSTATIC HYPERPLASIA” (KISSEI PHARMACEUTICAL CO., LTD., priority 2007, published 2011)
